Experimental data reported in patent publication US10471046B2, “Method for treating, preventing, or reducing the risk of skin infection” (Melinta Subsidiary Corp., priority 2014, dated 2019).
In brackets after ≈: the same amount, converted by molar mass.

System: S. aureus
Assay: Minimum inhibitory concentrations (MICs) for S. aureus of exemplary compounds (Table 2)
Type: cell-based
Details: Staphylococcus aureus, minimum inhibitory concentrations for S. aureus; read-out: MICs
Summary of the method: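 Growth of S. aureus in media with or without compound, by broth microdilution in microtiter trays following NCCLS M7-A5 guidelines. Values are MICs in μg/mL.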

MIC	Structure (SMILES)
0.25 mg/L (≈ 0.574 µM)	CC(=O)NC[C@H]1CN(c2ccc(-c3ccc(Cn4ccc(C=O)c4)cc3)c(F)c2)C(=O)O1 [Compound 1055, N-{3-[2-Fluoro-4′-(3-formyl-pyrrol-1-ylmethyl)-biphenyl-4-yl]-2-oxo-oxazolidin-5-(S)-ylmethyl}-acetamide]
0.25 mg/L (≈ 0.566 µM)	CC(=O)NC[C@H]1CN(c2ccc(-c3ccc(CSc4ncn[nH]4)cc3)c(F)c2)C(=O)O1 [Compound 2047, N-{3-[2-Fluoro-4′-(2H-[1,2,4]triazol-3-ylsulfanylmethyl)-biphenyl-4-yl]-2-oxo-oxazolidin-5-(S)-ylmethyl}-acetamide]
2 mg/L (≈ 5.03 µM)	CC(=O)NC[C@H]1CN(c2ccc(-c3ccc(CN4CCC4)cc3)c(F)c2)C(=O)O1 [Compound 1090, N-[3-(4′-Azetidin-1-ylmethyl-2-fluoro-biphenyl-4-yl)-2-oxo-oxazolidin-5-(S)-ylmethyl]-acetamide]
0.25 mg/L (≈ 0.549 µM)	CC(=O)NC[C@H]1CN(c2ccc(-c3ccc(CCSc4cnn[nH]4)cc3)c(F)c2)C(=O)O1 [Compound 2026, N-(3-{2-Fluoro-4′-[2-(3H-[1,2,3]triazol-4-ylsulfanyl)-ethyl]-biphenyl-4-yl}-2-oxo-oxazolidin-5-(S)-ylmethyl)-acetamide]
1 mg/L (≈ 2.23 µM)	CC(=O)NC[C@H]1CN(c2ccc(-c3ccc(CNCc4ccncc4)cc3)c(F)c2)C(=O)O1 [Compound 4018, N-[3-(2-Fluoro-4′-{[(pyridin-4-ylmethyl)-amino]-methyl}-biphenyl-4-yl)-2-oxo-oxazolidin-5-(S)-ylmethyl]-acetamide]
0.5 mg/L (≈ 0.962 µM)	CC(=O)NC[C@H]1CN(c2ccc(-c3ccc(CNCc4cc(C)oc4C(F)(F)F)cc3)c(F)c2)C(=O)O1 [Compound 4105, N-[3-(2-Fluoro-4′-{[(5-methyl-2-trifluoromethyl-furan-3-ylmethyl)-amino]-methyl}-biphenyl-4-yl)-2-oxo-oxazolidin-5-(S)-ylmethyl]-acetamide]
1 mg/L (≈ 2.11 µM)	CC(=O)NC[C@H]1CN(c2ccc(-c3ccc(CNCc4csnn4)c(F)c3)c(F)c2)C(=O)O1 [Compound 4164, N-[3-(2,3′-Difluoro-4′-{[([1,2,3]thiadiazol-4-ylmethyl)-amino]-methyl}-biphenyl-4-yl)-2-oxo-oxazolidin-5-(S)-ylmethyl]-acetamide]
2 mg/L (≈ 4.54 µM)	CC(=O)NC[C@H]1CN(c2ccc(-c3ccc(CNC(=O)C4(N)CC4)cc3)c(F)c2)C(=O)O1 [Compound 4321, 1-Amino-cyclopropanecarboxylic acid {4′-[5-(S)-(acetylamino-methyl)-2-oxo-oxazolidin-3-yl]-2′-fluoro-biphenyl-4-ylmethyl}-amide]
1 mg/L (≈ 2.01 µM)	CC(=O)NC[C@H]1CN(c2ccc(-c3ccc(CS(=O)(=O)Cc4ccncc4)cc3)c(F)c2)C(=O)O1 [Compound 4214, N-{3-[2-Fluoro-4′-(pyridin-4-ylmethanesulfonylmethyl)-biphenyl-4-yl]-2-oxo-oxazolidin-5-(S)-ylmethyl}-acetamide]
4 mg/L (≈ 6.85 µM)	CC(=O)NC[C@H]1CN(c2ccc(-c3ccc(CNCC(=O)N4CCN(C(=O)OC(C)(C)C)CC4)cc3)c(F)c2)C(=O)O1 [Compound 4315, 4-[2-({4′-[5-(S)-(Acetylamino-methyl)-2-oxo-oxazolidin-3-yl]-2′-fluoro-biphenyl-4-ylmethyl}-amino)-acetyl]-piperazine-1-carboxylic acid tert-butyl ester]
4 mg/L (≈ 8.02 µM)	CC(=O)NC[C@H]1CN(c2ccc(-c3ccc(CNCC(F)(F)c4ccccn4)cc3)c(F)c2)C(=O)O1 [Compound 4177, N-(3-{4′-[(2,2-Difluoro-2-pyridin-2-yl-ethylamino)-methyl]-2-fluoro-biphenyl-4-yl}-2-oxo-oxazolidin-5-(S)-ylmethyl)-acetamide]
2 mg/L (≈ 3.87 µM)	COc1ccc2[nH]cc(CNCc3ccc(-c4ccc(N5C[C@H](CNC(C)=O)OC5=O)cc4F)cc3)c2c1 [Compound 4098, N-[3-(2-Fluoro-4′-{[(5-methoxy-1H-indol-3-ylmethyl)-amino]-methyl}-biphenyl-4-yl)-2-oxo-oxazolidin-5-(S)-ylmethyl]-acetamide]
1 mg/L (≈ 2.27 µM)	CC(=O)NC[C@H]1CN(c2ccc(-c3ccc(CSc4ncc[nH]4)cc3)c(F)c2)C(=O)O1 [Compound 2032, N-{3-[2-Fluoro-4′-(1H-imidazol-2-ylsulfanylmethyl)-biphenyl-4-yl]-2-oxo-oxazolidin-5-(S)-ylmethyl}-acetamide]
4 mg/L (≈ 7.2 µM)	CCOC(=O)c1c[nH]c(SCCNCc2ccc(-c3ccc(N4C[C@H](CNC(C)=O)OC4=O)cc3F)cc2)n1 [Compound 5010, 2-[2-({4′-[5-(S)-(Acetylamino-methyl)-2-oxo-oxazolidin-3-yl]-2′-fluoro-biphenyl-4-ylmethyl}-amino)-ethylsulfanyl]-1H-imidazole-4-carboxylic acid ethyl ester]
8 mg/L (≈ 17 µM)	CC(=O)NC[C@H]1CN(c2ccc(-c3ccc(CNC(=O)[C@@H]4C[C@@H](O)CN4)cc3)c(F)c2)C(=O)O1 [Compound 4301, 4-(R)-Hydroxy-pyrrolidine-2-(S)-carboxylicacid {4′-[5-(S)-(acetylamino-methyl)-2-oxo-oxazolidin-3-yl]-2′-fluoro-biphenyl-4-ylmethyl}-amide]
1 mg/L (≈ 1.96 µM)	COC(=O)c1cc(CNCc2ccc(-c3ccc(N4C[C@H](CNC(C)=O)OC4=O)cc3F)cc2)oc1C [Compound 4120, 5-[({4′-[5-(S)-(Acetylamino-methyl)-2-oxo-oxazolidin-3-yl]-2′-fluoro-biphenyl-4-ylmethyl}-amino)-methyl]-2-methyl-furan-3-carboxylic acid methyl ester]
1 mg/L (≈ 2.06 µM)	CNc1nc(CNCc2ccc(-c3ccc(N4C[C@H](CNC(C)=O)OC4=O)cc3F)cc2)ns1 [Compound 4180, N-[3-(2-Fluoro-4′-{[(5-methylamino-[1,2,4]thiadiazol-3-ylmethyl)-amino]-methyl}-biphenyl-4-yl)-2-oxo-oxazolidin-5-(S)-ylmethyl]-acetamide]
32 mg/L (≈ 86.9 µM)	NC[C@H]1CN(c2ccc(-c3ccc(Cn4cnnn4)cc3)c(F)c2)C(=O)O1 [Compound 1032, 5-(S)-Aminomethyl-3-(2-fluoro-4′-tetrazol-1-ylmethyl-biphenyl-4-yl)-oxazolidin-2-one]
0.5 mg/L (≈ 0.962 µM)	CC(=O)NC[C@H]1CN(c2ccc(-c3ccc(CNCc4c[nH]nc4-c4cccs4)cc3)c(F)c2)C(=O)O1 [Compound 4127, N-[3-(2-Fluoro-4′-{[(3-thiophen-2-yl-1H-pyrazol-4-ylmethyl)-amino]-methyl}-biphenyl-4-yl)-2-oxo-oxazolidin-5-(S)-ylmethyl]-acetamide]
8 mg/L (≈ 18.3 µM)	CC(=O)NC[C@H]1CN(c2ccc(-c3ccc(CNCc4ncc[nH]4)cc3)c(F)c2)C(=O)O1 [Compound 4091, N-[3-(2-Fluoro-4′-{[(1H-imidazol-2-ylmethyl)-amino]-methyl}-biphenyl-4-yl)-2-oxo-oxazolidin-5-(S)-ylmethyl]-acetamide]
4 mg/L (≈ 9.38 µM)	CC(=O)NC[C@H]1CN(c2ccc(-c3ccc(CN4CC[C@H](N)C4)cc3)c(F)c2)C(=O)O1 [Compound 1092, N-{3-[4′-(3-(S)-Amino-pyrrolidin-1-ylmethyl)-2-fluoro-biphenyl-4-yl]-2-oxo-oxazolidin-5-(S)-ylmethyl}-acetamide]
2 mg/L (≈ 4.32 µM)	CC(=O)NC[C@H]1CN(c2ccc(-c3ccc(CNC(=O)c4ccncc4)cc3)c(F)c2)C(=O)O1 [Compound 4142, N-{4′-[5-(S)-(Acetylamino-methyl)-2-oxo-oxazolidin-3-yl]-2′-fluoro-biphenyl-4-ylmethyl}-isonicotinamide]
